# Measurements reported in patent US20070244107A1, “Method of Treating Atherosclerosis, Dyslipidemias and Related Conditions” (priority 2004, published 2007).
# Entries after “also recorded” stand apart in the source; their conditions may differ.
# System: male C57B16 mice
# Experiment: Flushing via laser Doppler procedure in mice
# Type: in vivo
# Conditions: relative to nicotinic acid; mouse model
# Method: To measure flushing, male C57B16 mice (approx. 25 g) are anesthetized using 10 mg/mkg Nembutal sodium. After ten minutes the animal is placed under the laser and the ear is folded back to expose the ventral side. The laser is positioned in the center of the ear and focused to an intensity of 8.4-9.0 V (which is generally approx. 4.5 cm above the ear). Data acquisition is initiated with a 15 by 15 image format, auto interval, 60 images and a 20 sec time delay with a medium resolution. Test compounds are administered following the 10th image via injection into the peritoneal space. Images 1-10 are considered the animal's baseline and data is normalized to an average of the baseline mean intensities.
smiles,measurement,value
"C1Cc2[nH]nc(-c3nnn[nH]3)c2C1 [compound of formula I, 3-(2H-tetrazol-5-yl)-1,4,5,6-tetrahydrocyclopentapyrazole]",flushing effect,"reduced flushing effect relative to nicotinic acid; also recorded: reduced flushing effect relative to nicotinic acid, but flushing is not completely eliminated"
